Numbering of substitutions follows the chain as printed. Peptide text beside a SMILES is read from it.
T1: OutS_L96A (Dickeya dadantii, UniProt Q01567, L96A)
T1 construct: made in house; host or cells: E. coli (periplasm)
T1 sequence (Q01567 21-133 L96A): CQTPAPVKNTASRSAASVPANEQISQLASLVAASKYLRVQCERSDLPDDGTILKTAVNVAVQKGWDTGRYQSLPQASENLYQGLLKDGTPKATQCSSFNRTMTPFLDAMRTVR

T2: OutS_L100A (Dickeya dadantii, UniProt Q01567, L100A)
T2 construct: made in house; host or cells: E. coli (periplasm)
T2 sequence (Q01567 21-133 L100A): T1 sequence (Q01567 21-133 L96A) with A76L, L80A

T3: OutS_S49R (Dickeya dadantii, UniProt Q01567, S49R)
T3 construct: made in house; host or cells: E. coli (periplasm)
T3 sequence (Q01567 21-133 S49R): T1 sequence (Q01567 21-133 L96A) with S29R, A76L

T4: OutS_Q114A (Dickeya dadantii, UniProt Q01567, Q114A)
T4 construct: made in house; host or cells: E. coli (periplasm)
T4 sequence (Q01567 21-133 Q114A): T1 sequence (Q01567 21-133 L96A) with A76L, Q94A

B1: OutD: Dickeya dadantii secretin of the type II secretion system, UniProt Q01565 (protein, UniProt Q01565 28-710, looked up)
Secretin OutD: AEFSASFKGTDIQEFINTVSKNLNKTVIIDPTVRGTISVRSYDMMNEGQYYQFFLSVLDVYGFSVVPMDNGVLKVIRSKDAKSSSIPLANNEQPGIGDELVTRVVPLNNVAARDLAPLLRQLNDNAGAGTVVHYEPSNVLLMTGRAAVIKRLVDIVNTVDKTGDREMVTVPLTYASAEDVAKLVNDLNKSDEKNALPSTMLANVVADGRTNSVVVSGEENARQRAVEMIRQLDRKQVVQGGTKVIYLKYAKALDLIEVLAGNGTSGNRNSSSSNASRPSSPRSGSSSNSNSSSGSSGSSSGSSSSSSSSSSMGFGSAFGSTSSSGGRTITIQGKEVTVRAHDQTNSLIITAPPDIMRDLEQVINQLDIRRPQVLVEAIIAEIQDADGLNLGIQWANKRAGMTQFTNTGIPISTAVIGTDQFRSNGTLTTAYASALSSFNGVTAGFYRGNWSMLLTALSSDSKNDVLATPSIVTLDNMEATFNVGQEVPVLTGSQTTSADNIFNTVERKTVGIKLRVKPQINEGDSVLLQIEQEVSSVADSNSSTNSSLGVTFNTRTVNNAVMVTNGETVVVGGLLDKTSVESNDKVPLLGDIPWLGSLFRSKSQEVRKRNLMLFLRPTIIRDPGQFQEASINKYRSFNNEQQQQRGEGNGVLDNNTLRLSGGNTYTFRQVQSSISDFYKPEGR

Tests used:
[1] = biological target: T1, OutS_L96A; experiment: Fluorescence quenching titration, secretin peptide binding to pilotin mutant L96A; conditions: fluorescence at 340 nm, excitation 290 nm, 15°C, 1 µM pilotin
Excerpt: (§1) The pET-20b(+) plasmid expressing non-lipidated OutS (residues 26 to 132) fused to N-terminal PelB signal peptide has been constructed previously at a manner as the sequence of mature non-lipidated OutS after cleavage by the signal peptidase LepB is: MDP^26VKNT etc. To fuse a C-terminal 6His tag to non-lipidated OutS, SalI site was introduced at the end of outS sequence by using the primer (5′-ctt gac gcc atg cgc acc gtc gac tga ggg gga agc aac tgc) and the reverse complementary one (mutated bases are underlined). Then, by SalI/XhoI digestion the sequence coding for non-lipidated OutS was fused with that coding for 6His. Mutants of OutS were made using Strategene QuikChange and confirmed by sequencing.
(§2) Fluorescence data were collected using a Jasco FP-6300 Spectrofluorometer. […] Emission spectra were recorded at 15°C in steps of 2 nm from 310 to 400 nm. The fluorescence signal at 340 nm was plotted to calculate K d. Pilotin spectra was measured at 1 µM. […]
(§3) The Kd was determined by fitting the following equation: […]
(§4) where [PS] is the concentration of the pilotin/secretin complex, [P0] is the total concentration of the pilotin (1 µM), [S0] is the total concentration of the secretin peptide, and Kd is the dissociation constant. The observed fluorescence signal is then given by: F = FPS[PS] + FP[P]; as there are no tryptophans in the secretin peptide. […]

[2] = biological target: T2, OutS_L100A; experiment: Fluorescence quenching titration, secretin peptide binding to pilotin mutant L100A; conditions: fluorescence at 340 nm, excitation 290 nm, 15°C, 1 µM pilotin
Excerpt: as §1, §2, §3, §4

[3] = biological target: T3, OutS_S49R; experiment: Fluorescence quenching titration, secretin peptide binding to pilotin mutant S49R; conditions: fluorescence at 340 nm, excitation 290 nm, 15°C, 1 µM pilotin
Excerpt: as §1, §2, §3, §4

[4] = biological target: T4, OutS_Q114A; experiment: Fluorescence quenching titration, secretin peptide binding to pilotin mutant Q114A; conditions: fluorescence at 340 nm, excitation 290 nm, 15°C, 1 µM pilotin
Excerpt: as §1, §2, §3, §4

[5] = system: inner membrane; conditions: ref [21]; cited from earlier work
Excerpt: The type II secretion system spans both the inner and outer bacterial membranes, [18]. It consists of an inner membrane subcomplex, periplasmic pseudopilins and the outer membrane secretin [19]. There have been considerable recent advances in our understanding of the T2SS secretin. First the structure of the N-terminal periplasmic domains N0, N1, and N2 in complex with a nanobody was elucidated (PDB code 3EZJ) and secondly a cryo EM reconstruction of the secretin itself has been described. In the absence of pilotin the D. dadantii secretin (OutD) mislocates to the inner ...

[6] = system: pspA-lacZ; experiment: pspA-lacZ induction (β-galactosidase activity); format: cell-based; conditions: E. coli MC3, 12 h at 30°C in LB
Excerpt: (§5) Figure 4 In vivo determination of secretin interactions with pilotin. Removal of the extreme C-terminal region of the secretin results in mislocalization of the secretin to the inner membrane (A) Sequence of the C-terminus of Dickeya dadantii secretin (OutD) along with the secondary structure prediction for this region; the predicted three helices are marked “H”. The sequences of the three secretin deletion mutants (OutDΔC1 to OutDΔC3) and the C-terminal secretin peptides used are shown. (B) Stabilization of truncated derivatives of the secretin (OutD) by pilotin (OutS) in vivo. E. coli MC3 cells expressing an OutD derivative (indicated above) and either OutS (+) or empty pACT3 vector (−) were grown for 12 h at 30°C in LB medium and then analyzed by immunoblotting with OutD antibodies. In the same cultures, β-galactosidase activity was assessed to estimate expression of pspA-lacZ. An elevated level of pspA reflects mislocalization of the corresponding secretin derivative to the inner membrane. […] The whole membrane fraction from E. coli NM522 cells coexpressing the indicated secretin derivatives and pilotin was separated by flotation sucrose gradient centrifugation and analyzed by immunoblotting with OutD- antibodies or stained with Coomassie G-250 to detect the major porins, which reflect the position of the outer membrane. […]

[7] = system: E. coli NM522 cells; experiment: Membrane location by flotation sucrose gradient centrifugation; format: cell-based; conditions: with pilotin OutS, immunoblot
Excerpt: as §5

| Molecule | Kd [1] [nM] | Kd [2] [nM] | Kd [3] [nM] | Kd [4] [nM] | location of secretin in absence of pilotin [5] | pspA (β-galactosidase activity) ([6]; OutS: +) | pspA (β-galactosidase activity) ([6]; OutS: − (empty pACT3 vector)) | outer membrane location / targeting [7] |
| --- | --- | --- | --- | --- | --- | --- | --- | --- |
| CC[C@H](C)[C@H](NC(=O)[C@H](CO)NC(=O)[C@H](CO)NC(=O)[C@H](CCC(N)=O)NC(=O)[C@@H](NC(=O)[C@H](CCC(N)=O)NC(=O)[C@H](CCCNC(=N)N)NC(=O)[C@H](Cc1ccccc1)NC(=O)[C@@H](NC(=O)[C@H](Cc1ccc(O)cc1)NC(=O)[C@@H](N)[C@@H](C)O)[C@@H](C)O)C(C)C)C(=O)N[C@@H](CO)C(=O)N[C@@H](CC(=O)O)C(=O)N[C@@H](Cc1ccccc1)C(=O)N[C@@H](Cc1ccc(O)cc1)C(=O)N[C@@H](CCCCN)C(=O)N1CCC[C@H]1C(=O)N[C@@H](CCC(=O)O)C(=O)O [18 residue secretin peptide] (H-TYTFRQVQSSISDFYKPE-OH) | 5300 ± 1200 | 2100 ± 500 | > 200000 | 1100 ± 350 |  |  |  |  |
| B1 |  |  |  |  | mislocates to the inner membrane | 800 | 1100 | promotes the outer membrane location |
